Among the data in ChEMBL document CHEMBL3991601, “The target landscape of clinical kinase drugs” (Science, 2017) are Kd values, retold here.

Active and inactive are the calls of the source. Rule as the data show it, for most assays here: actives have a measured Kd and inactives only a lower limit.

In general, Kd refers to the equilibrium constant for the complex coming apart.

In assay [1] the target is Proto-oncogene tyrosine-protein kinase receptor Ret (Homo sapiens, UniProt P07949).
For assay [2], the target named is T1, Ras-related protein Rab-27A (Homo sapiens, UniProt P51159).
T1 sequence (P51159 whole entry): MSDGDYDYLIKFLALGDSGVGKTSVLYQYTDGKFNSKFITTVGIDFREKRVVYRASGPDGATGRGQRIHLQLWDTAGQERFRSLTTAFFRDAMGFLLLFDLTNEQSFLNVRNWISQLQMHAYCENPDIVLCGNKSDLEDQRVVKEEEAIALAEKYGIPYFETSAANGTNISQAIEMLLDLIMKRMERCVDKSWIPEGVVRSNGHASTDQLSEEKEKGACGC

Assay [3] concerns the target Cyclin-dependent kinase 6 (Homo sapiens, UniProt Q00534).
The target in assay [4] is Protein-tyrosine kinase 6 (Homo sapiens, UniProt Q13882).
Chain of Protein-tyrosine kinase 6 (Q13882 whole entry): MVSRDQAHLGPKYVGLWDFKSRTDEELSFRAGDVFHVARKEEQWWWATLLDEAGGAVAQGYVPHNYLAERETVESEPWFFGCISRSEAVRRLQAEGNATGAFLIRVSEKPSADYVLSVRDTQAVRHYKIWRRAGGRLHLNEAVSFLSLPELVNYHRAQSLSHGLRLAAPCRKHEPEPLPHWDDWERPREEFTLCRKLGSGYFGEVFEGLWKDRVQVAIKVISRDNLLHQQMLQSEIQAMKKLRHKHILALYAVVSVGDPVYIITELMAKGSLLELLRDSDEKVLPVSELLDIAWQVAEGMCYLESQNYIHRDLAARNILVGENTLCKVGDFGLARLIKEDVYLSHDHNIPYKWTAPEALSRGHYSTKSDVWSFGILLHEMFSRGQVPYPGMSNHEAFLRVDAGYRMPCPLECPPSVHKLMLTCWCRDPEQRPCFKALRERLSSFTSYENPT
In assay [5] the target is T2, Mitogen-activated protein kinase kinase kinase 2 (Homo sapiens, UniProt Q9Y2U5).
T2 sequence (Q9Y2U5 whole entry): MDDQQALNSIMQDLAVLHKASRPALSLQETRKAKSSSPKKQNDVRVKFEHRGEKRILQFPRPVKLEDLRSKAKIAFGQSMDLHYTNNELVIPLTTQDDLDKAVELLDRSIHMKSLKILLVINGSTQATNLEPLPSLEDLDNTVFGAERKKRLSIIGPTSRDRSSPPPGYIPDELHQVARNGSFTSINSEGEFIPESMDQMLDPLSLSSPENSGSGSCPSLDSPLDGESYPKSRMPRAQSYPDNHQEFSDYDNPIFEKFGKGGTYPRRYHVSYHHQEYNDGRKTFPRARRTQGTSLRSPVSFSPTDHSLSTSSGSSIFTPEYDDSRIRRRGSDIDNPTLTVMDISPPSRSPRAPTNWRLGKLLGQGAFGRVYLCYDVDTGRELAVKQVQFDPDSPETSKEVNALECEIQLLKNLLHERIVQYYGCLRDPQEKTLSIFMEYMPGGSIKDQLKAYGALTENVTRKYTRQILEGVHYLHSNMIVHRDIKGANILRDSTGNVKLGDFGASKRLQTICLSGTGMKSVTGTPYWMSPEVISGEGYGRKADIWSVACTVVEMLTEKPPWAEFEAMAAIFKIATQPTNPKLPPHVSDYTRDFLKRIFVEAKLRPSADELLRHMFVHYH

Assay [6] has as its target Protein-tyrosine kinase 2-beta (Homo sapiens, UniProt Q14289).
Assay [7] addresses T3, Serine/threonine-protein kinase Nek3 (Homo sapiens, UniProt P51956).
T3 sequence (P51956 whole entry): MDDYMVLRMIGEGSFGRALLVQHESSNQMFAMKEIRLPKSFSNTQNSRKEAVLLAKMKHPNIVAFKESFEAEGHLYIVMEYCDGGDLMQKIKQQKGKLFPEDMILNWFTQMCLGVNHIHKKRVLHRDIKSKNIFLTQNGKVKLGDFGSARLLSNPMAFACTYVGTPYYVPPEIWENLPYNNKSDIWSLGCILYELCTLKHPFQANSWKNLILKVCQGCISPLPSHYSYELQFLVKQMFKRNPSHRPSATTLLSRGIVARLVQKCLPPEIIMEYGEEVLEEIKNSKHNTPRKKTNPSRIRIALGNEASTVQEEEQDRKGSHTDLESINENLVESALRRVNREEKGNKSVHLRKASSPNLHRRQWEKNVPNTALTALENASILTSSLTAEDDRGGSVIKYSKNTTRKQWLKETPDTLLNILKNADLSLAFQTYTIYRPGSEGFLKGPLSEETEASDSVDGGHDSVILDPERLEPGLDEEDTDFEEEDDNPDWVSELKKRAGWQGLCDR

Another assay has as its target Activated CDC42 kinase 1 (Homo sapiens, UniProt Q07912).
Assay [8] addresses T4, Serine/threonine-protein kinase STK11 (Homo sapiens, UniProt Q15831).
T4 sequence (Q15831 whole entry): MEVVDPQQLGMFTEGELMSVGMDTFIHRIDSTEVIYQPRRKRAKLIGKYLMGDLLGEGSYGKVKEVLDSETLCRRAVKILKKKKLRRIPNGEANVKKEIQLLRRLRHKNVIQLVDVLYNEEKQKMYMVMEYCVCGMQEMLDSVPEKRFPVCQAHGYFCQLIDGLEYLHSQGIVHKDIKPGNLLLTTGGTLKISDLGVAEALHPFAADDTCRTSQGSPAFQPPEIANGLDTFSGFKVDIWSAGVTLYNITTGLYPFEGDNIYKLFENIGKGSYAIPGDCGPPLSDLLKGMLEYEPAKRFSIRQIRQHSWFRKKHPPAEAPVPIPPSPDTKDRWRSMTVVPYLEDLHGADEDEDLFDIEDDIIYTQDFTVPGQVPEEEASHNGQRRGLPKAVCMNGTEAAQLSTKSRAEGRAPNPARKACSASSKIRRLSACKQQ
Also: in the data inactive means no Kd found up to 30 µM.

Chain of Protein-tyrosine kinase 2-beta (Q14289 whole entry): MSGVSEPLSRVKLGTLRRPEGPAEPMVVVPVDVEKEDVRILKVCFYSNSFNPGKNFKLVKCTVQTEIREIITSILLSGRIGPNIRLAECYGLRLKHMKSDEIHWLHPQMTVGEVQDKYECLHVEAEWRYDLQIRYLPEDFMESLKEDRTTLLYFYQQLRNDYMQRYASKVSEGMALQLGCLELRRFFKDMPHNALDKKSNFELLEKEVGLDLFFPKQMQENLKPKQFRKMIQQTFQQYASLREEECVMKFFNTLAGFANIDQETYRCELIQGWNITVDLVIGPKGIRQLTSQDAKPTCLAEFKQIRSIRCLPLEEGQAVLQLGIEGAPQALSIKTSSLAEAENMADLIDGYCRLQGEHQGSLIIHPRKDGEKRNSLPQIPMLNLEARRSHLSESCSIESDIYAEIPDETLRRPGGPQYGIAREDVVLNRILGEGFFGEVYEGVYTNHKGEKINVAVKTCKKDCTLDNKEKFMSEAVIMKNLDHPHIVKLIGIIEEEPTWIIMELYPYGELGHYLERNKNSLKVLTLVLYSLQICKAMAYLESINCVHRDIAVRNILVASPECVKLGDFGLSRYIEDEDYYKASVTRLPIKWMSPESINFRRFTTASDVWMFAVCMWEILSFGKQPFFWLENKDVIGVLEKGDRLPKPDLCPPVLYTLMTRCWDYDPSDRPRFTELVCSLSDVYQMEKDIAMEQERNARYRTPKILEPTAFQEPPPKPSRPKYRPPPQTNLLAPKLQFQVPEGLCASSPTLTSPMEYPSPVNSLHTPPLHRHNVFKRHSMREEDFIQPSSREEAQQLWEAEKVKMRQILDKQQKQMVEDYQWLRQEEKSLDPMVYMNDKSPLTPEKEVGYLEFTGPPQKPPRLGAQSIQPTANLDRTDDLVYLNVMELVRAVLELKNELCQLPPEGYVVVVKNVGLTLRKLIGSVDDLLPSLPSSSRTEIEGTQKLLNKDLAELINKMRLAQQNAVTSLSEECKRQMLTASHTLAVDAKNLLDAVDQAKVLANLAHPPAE
Chain of Activated CDC42 kinase 1 (Q07912 whole entry): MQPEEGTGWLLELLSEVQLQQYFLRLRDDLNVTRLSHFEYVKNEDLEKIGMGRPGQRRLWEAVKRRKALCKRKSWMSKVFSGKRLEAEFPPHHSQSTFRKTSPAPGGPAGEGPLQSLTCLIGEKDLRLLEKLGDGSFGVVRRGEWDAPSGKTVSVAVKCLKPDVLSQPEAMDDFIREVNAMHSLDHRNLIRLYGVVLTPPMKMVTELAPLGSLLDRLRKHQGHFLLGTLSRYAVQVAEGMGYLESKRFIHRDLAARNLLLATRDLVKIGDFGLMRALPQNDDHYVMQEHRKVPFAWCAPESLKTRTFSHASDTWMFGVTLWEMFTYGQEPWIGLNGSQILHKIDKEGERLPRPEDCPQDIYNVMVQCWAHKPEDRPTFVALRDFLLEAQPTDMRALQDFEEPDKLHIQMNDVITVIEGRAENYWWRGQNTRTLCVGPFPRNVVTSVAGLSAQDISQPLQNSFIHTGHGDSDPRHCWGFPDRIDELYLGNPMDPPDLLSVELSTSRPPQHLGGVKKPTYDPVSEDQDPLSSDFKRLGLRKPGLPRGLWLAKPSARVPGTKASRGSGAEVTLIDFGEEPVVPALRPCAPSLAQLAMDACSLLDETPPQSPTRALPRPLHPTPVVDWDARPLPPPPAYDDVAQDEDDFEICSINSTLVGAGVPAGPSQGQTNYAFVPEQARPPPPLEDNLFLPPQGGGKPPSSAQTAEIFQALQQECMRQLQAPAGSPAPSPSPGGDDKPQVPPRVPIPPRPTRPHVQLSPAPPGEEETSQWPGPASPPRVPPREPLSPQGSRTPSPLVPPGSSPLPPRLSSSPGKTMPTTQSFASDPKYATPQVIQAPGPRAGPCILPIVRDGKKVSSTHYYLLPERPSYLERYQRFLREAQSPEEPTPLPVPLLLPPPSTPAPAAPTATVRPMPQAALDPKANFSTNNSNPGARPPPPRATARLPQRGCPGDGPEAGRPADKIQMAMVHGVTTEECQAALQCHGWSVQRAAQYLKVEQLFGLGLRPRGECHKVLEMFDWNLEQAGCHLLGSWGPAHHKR
Chain of Proto-oncogene tyrosine-protein kinase receptor Ret (P07949 whole entry): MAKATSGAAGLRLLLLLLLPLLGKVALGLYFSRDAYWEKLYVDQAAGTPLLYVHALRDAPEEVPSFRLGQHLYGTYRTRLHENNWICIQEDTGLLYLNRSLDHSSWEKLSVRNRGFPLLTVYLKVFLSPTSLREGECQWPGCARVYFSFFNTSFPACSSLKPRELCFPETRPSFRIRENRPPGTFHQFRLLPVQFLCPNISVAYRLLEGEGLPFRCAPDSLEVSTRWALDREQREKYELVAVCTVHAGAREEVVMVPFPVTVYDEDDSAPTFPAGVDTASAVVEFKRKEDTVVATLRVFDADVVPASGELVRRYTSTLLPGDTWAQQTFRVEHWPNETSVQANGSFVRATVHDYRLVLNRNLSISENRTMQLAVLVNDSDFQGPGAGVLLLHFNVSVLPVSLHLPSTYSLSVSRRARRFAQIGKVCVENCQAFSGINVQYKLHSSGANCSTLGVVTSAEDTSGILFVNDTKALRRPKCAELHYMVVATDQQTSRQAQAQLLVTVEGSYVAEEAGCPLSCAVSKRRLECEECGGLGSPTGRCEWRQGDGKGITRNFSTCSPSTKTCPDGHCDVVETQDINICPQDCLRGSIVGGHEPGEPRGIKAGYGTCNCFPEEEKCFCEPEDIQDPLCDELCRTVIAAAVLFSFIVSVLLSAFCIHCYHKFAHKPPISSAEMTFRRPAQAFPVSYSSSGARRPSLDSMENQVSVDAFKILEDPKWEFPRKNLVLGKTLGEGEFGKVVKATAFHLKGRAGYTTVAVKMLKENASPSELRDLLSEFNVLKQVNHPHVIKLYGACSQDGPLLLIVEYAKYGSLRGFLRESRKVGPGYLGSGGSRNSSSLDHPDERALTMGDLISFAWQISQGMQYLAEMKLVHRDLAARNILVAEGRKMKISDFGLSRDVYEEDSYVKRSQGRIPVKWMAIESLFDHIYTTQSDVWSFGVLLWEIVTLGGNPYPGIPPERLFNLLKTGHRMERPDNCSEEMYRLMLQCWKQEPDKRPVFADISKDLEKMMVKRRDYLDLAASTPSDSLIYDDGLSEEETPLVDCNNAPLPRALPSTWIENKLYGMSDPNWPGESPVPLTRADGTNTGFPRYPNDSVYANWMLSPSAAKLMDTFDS
Chain of Cyclin-dependent kinase 6 (Q00534 whole entry): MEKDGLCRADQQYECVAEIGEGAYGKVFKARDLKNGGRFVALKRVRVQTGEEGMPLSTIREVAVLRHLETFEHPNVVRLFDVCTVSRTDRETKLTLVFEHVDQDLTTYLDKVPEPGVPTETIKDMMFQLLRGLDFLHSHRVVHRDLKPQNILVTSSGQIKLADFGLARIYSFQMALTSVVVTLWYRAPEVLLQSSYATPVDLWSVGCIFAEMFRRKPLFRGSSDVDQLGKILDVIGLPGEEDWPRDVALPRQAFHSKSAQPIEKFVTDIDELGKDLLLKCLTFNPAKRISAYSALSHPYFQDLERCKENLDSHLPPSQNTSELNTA

As for `C[C@@H](Oc1cc(C(=O)Nc2ccc(C(=O)N3CCN(C)CC3)cc2)nnc1N)c1c(Cl)ccc(F)c1Cl`, the Kd in [1], in [2], in assay [3], in assay [4], in assay [5] and in [6] was > 30 µM (inactive) each time. For the same compound, the Kd (in [7]; on Activated CDC42 kinase 1) was > 30 µM (inactive) each time.

Turning to `CC(=O)c1cnc2ccc(-c3cc(Cl)c(O)c(Cl)c3)nc2c1N[C@H]1CC[C@H](CN(C)C)CC1`, the dissociation constant (Kd) in assay [1] is 0.028 µM (active); in [2], > 30 µM (inactive); in assay [3], > 30 µM (inactive); in assay [4], > 30 µM (inactive); in assay [6], 0.03 µM (active); in assay [7], > 30 µM (inactive). Further, the Kd (in assay [8]; on Activated CDC42 kinase 1) was > 30 µM (inactive) each time.

As for `COc1cc(Nc2ncc3c(n2)-c2ccc(Cl)cc2C(c2c(F)cccc2OC)=NC3)ccc1C(=O)O` [ALISERTIB], the Kd in [2], in assay [3], in assay [5], in assay [6], in assay [7] and in [8] was > 30 µM (inactive) each time.

On to `Cc1csc(-c2nnc(Nc3ccc(Oc4ncccc4-c4ccnc(N)n4)cc3)c3ccccc23)c1` [AMG-900], for which the Kd in assay [1] is 1.14 µM (active); in assay [2] it was > 30 µM (inactive); in assay [3], > 30 µM (inactive); in assay [4], > 30 µM (inactive); in assay [5], 1.97 µM (active); in assay [6] it was > 30 µM (inactive). Further, the Kd (in assay [7]; on Activated CDC42 kinase 1) was > 30 µM (inactive) throughout.

As for `O=C(Nc1c[nH]nc1-c1nc2cc(CN3CCOCC3)ccc2[nH]1)NC1CC1` [AT-9283], the Kd was > 30 µM (inactive) in [2]; 0.188 µM (active) in [4]; 0.277 µM (active) in [5]; > 30 µM (inactive) in [6]; > 30 µM (inactive) in [8]; > 30 µM (inactive) at Activated CDC42 kinase 1.

Consider `CNC(=O)c1ccccc1Sc1ccc2c(/C=C/c3ccccn3)n[nH]c2c1` [AXITINIB], for which the Kd in assay [2] and in assay [3] was > 30 µM (inactive) throughout.

`COc1cc2ncnc(Oc3cccc(NC(=O)Nc4cc(C(C)(C)C(F)(F)F)on4)c3)c2cc1OC` [CEP-32496]: the Kd in assay [2], in assay [3], in assay [4], in [5], in assay [6] and in assay [7] was > 30 µM (inactive) in each case. The Kd (in assay [8]; at Activated CDC42 kinase 1) was > 30 µM (inactive) each time.

On to `Cc1cc(Nc2ncc(Cl)c(Nc3ccccc3S(=O)(=O)C(C)C)n2)c(OC(C)C)cc1C1CCNCC1` [CERITINIB], for which the Kd is > 30 µM (inactive) in assay [2]; > 30 µM (inactive) in [3]; > 30 µM (inactive) in assay [4]; > 30 µM (inactive) in assay [5]; 18.4 µM (active) in assay [6]; > 30 µM (inactive) in assay [7]. Besides, the Kd in [8] was > 30 µM (inactive); on Activated CDC42 kinase 1 it was 0.929 µM (active).

As for `C#Cc1cccc(Nc2ncnc3cc(OC)c(OCCCCCCC(=O)NO)cc23)c1` [CUDC-101], the Kd in assay [2], in [3], in assay [4], in [5], in assay [6] and in assay [7] was > 30 µM (inactive) throughout. For the same compound, the Kd (in assay [8]; on Activated CDC42 kinase 1) was > 30 µM (inactive) in each case.

For the compound `CC(C)(C)c1nc(-c2cccc(NS(=O)(=O)c3c(F)cccc3F)c2F)c(-c2ccnc(N)n2)s1` [DABRAFENIB], the Kd in assay [2] is > 30 µM (inactive); in [3] it was 0.318 µM (active); in assay [4] it was 1.41 µM (active); in assay [5] it was > 30 µM (inactive); in assay [6], > 30 µM (inactive); in assay [7] it was > 30 µM (inactive). Besides, in assay [8], the Kd was > 30 µM (inactive).

Consider `Cn1cc(C2=C(c3cn(C4CCN(Cc5ccccn5)CC4)c4ccccc34)C(=O)NC2=O)c2ccccc21` [ENZASTAURIN], for which the Kd in [2] and in assay [3] was > 30 µM (inactive) throughout.

Consider `C[C@@H](Oc1cc(-n2cnc3ccc(CN4CCN(C)CC4)cc32)sc1C(N)=O)c1ccccc1C(F)(F)F` [GSK-461364], for which the Kd in assay [2] and in [3] was > 30 µM (inactive) in each case.

`CN(C[C@@H]1COCCO1)S(=O)(=O)Nc1ccc2ccc3ncc(-c4cnn(C)c4)cc3c(=O)c2c1` [MK-2461]: the Kd in assay [2], in [3], in [4], in assay [5], in assay [6] and in assay [7] was > 30 µM (inactive) each time. Further, the Kd (in assay [8]; at Activated CDC42 kinase 1) was > 30 µM (inactive) each time.

On to `Cc1[nH]c(/C=C2\C(=O)Nc3ccccc32)c(C)c1CCC(=O)O` [ORANTINIB], for which the Kd in assay [2], in assay [3], in assay [5] and in assay [7] was > 30 µM (inactive) each time.

For the compound `NC(=O)c1c(OCc2c(F)cc(Br)cc2F)nsc1NC(=O)NCCCCN1CCCC1` [OSI-632], the Kd in [2], in assay [3], in [7] and in [8] was > 30 µM (inactive) in each case.

Regarding `CC(=O)NCC(=O)N1[C@@H]2CC[C@H]1c1ccc(Nc3ncc(C(F)(F)F)c(NC4CCC4)n3)cc12` [PF-03814735], the Kd is > 30 µM (inactive) in [2]; 2.08 µM (active) in [3]; 0.164 µM (active) in [5]; > 30 µM (inactive) in assay [7]; > 30 µM (inactive) in [8].

In the case of `CNC(=O)c1cc(Oc2ccc(NC(=O)Nc3cc(C(C)(C)C)nn3-c3ccc4ncccc4c3)c(F)c2)ccn1` [REBASTINIB], the Kd in [2] was > 30 µM (inactive); in assay [3], > 30 µM (inactive); in [5] it was > 30 µM (inactive); in [6] it was 9.24 µM (active); in assay [7], > 30 µM (inactive); in assay [8], > 30 µM (inactive). The Kd on Activated CDC42 kinase 1 is > 30 µM (inactive).

Take `O=C(NOCCO)c1cc(CN2OCCCC2=O)c(F)c(F)c1Nc1ccc(I)cc1F` [RO-4987655]: the Kd in assay [2] and in assay [3] was > 30 µM (inactive) each time.

Turning to `N#CC[C@H](C1CCCC1)n1cc(-c2ncnc3[nH]ccc23)cn1` [RUXOLITINIB], the values for the Kd in assay [2], in assay [3] and in assay [7] were > 30 µM (inactive), > 30 µM (inactive) and 29.9 µM (active), respectively.
